This note sets out measurements from patent publication US3935199A, “Iminomethylindolines” (Mead Johnson & Company, priority 1974, dated 1976).

Counter-ions that a name gives are not always drawn. Like-named read-outs stand apart in the source and are kept apart here.

Experiment [1] concerns pentobarbital treated cats. The experiment in a line: pentobarbital antagonism test in the cat. The format is in vivo. To be noted: comparison of 4-ethyl-4-methyl-2,6-piperidinedione and the two preferred compounds. On the procedure:
(§1) The compounds of the present invention effectively stimulate the central nervous system of mammals. Compounds having biological activity of this type are generally referred to as being analeptic agents.
The pentobarbital antagonism test for the compounds of the present invention in the cat is carried out in the following fashion. A cat of either sex wherein a chronically indwelling intravenous cannula has been previously surgically inserted, is placed in an observation cubicle measuring 2 ft. × 2ft. × 2ft. The cat is allowed to move about freely at the end of a leash. A dose of 12 milligrams per kilogram of body weight of pentobarbital sodium in aqueous solution is infused at the rate of approximately 2 milligrams per kilogram per minute via tubing contained in the leash. One-half hour after the start of this infusion the cat is in a state of light anesthesia characterized by unconsciousness, immobility, relaxed nictating membrane, and is not responsive to handling but has active pinneal, palpebral and paw-pinch withdrawal reflexes. At this time the 1-iminomethylindoline compound is infused in concentration of 10 milligrams per milliter at a rate of 0.2 milliters per minute until (a) consciousness is restored, (b) a total of 25 milligrams per kilogram of body weight of test compound is administered or (c) mounting toxicity interferes. Consciousness is recognized by the presence of alertness to surroundings as indicated by the ability of the cat's eyes to follow a movement of a nearby object and in its attempts to assume an upright position.
Representative compounds of the present invention wherein a dose of up to 25 milligrams per kilogram of body weight restored consciousness to pentobarbital treated cats are Examples 1-4, 7-10, 12, 15, 17-20, (Table III).

Experiment [2] has as its system chloral hydrate treated mice. Put plainly: chloral hydrate antagonism test in the mouse (sleeping time). The format is in vivo, mouse (male albino mice). To be noted: po, read-out: dose producing a 50 percent reduction of the sleeping time.
In experiment [3] the test system is phenylquinone writhing syndrome in mice. Put plainly: prevention of phenylquinone writhing (analgesic activity). Type of experiment: in vivo. As to conditions: Mus musculus, sc, 10 min, read-out: ED50 (prevention of phenylquinone writhing). On the procedure:
The prevention of this syndrome is employed as a measure of analgesic activity -- Hendershot and Forsaith, J. Pharmacol. Exp. Therap. […] In this test, groups of 10 to 20 mice are injected subcutaneously with graduated doses of the test compound. At the time of a predetermined peak effect, the animals are administered a dose of 2.5 milligrams per kilogram of body weight of phenylquinone intraperitoneally. The latter injection induces writhing episodes in the mice. […] A log dose-response curve is prepared and the dose of the test compound required to decrease the number of writhing episodes of 50 percent is estimated by interpolation.
(In general: Writhing tests count abdominal constrictions after an irritant is injected.)

Experiment [4] has as its system chloral hydrate treated mice. The experiment in a line: chloral hydrate antagonism test in the mouse (sleeping time). To be noted: oral 20 mg/kg, followed by 300 mg/kg i.p. chloral hydrate, compared to saline-treated control group, read-out: Percent Reduction in Sleeping Time at 20 mg/kg Body Weight. Type of experiment: in vivo, mouse (male albino mice). On the procedure:
as §1
According to the chloral hydrate antagonism test, groups of 20 fasted male albino mice are administered an oral dose of 20 milligrams per kilogram of the 1-iminomethylindoline test compound. This is followed immediately by an intraperitoneal dose of 300 milligrams per kilogram of chloral hydrate. The average reduction in sleeping time compared to a saline-treated control group is a measure of the central nervous system stimulant action of the test compound and is as follows for representative 1-iminomethylindolines of this invention.

The subject of experiment [5] is motor activity in rats. The experiment in a line: activity cage technique (motor stimulation in rats). The format is in vivo, rat. The source says:
The activity cage technique described by J. W. Kissel, Science, 139, 1224 (1963), was used to measure motor stimulation in rats. […] Since motor stimulation is generally associated with analeptic action, the instant compounds of this invention are unique in the respect that while they are analeptic agents they are not motor stimulants.

[6] abbreviates: subcutaneous, phenylquinone 2.5 mg/kg i.p., episodes counted during 10 minutes.
Where [7] appears, read: mouse, 300 mg/kg chloral hydrate, comparative test.

On to `CCC1(C)CC(=O)NC(=O)C1` [4-ethyl-4-methyl-2,6-piperidinedione, reference compound], for which the “comparison of pentobarbital antagonism: restoring consciousness to a pentobarbital treated cat” value (shortened to “comparison of pentobarbital antagonism”) in experiment [1] is on record as “substantially equiactive”. The ED50 in experiment [2] (Mus musculus) was 14.4 mg/kg.

Consider `CC(=O)Oc1ccccc1C(=O)O` [Aspirin, reference compound], for which the ED50 in experiment [3] is 20 mg/kg.

Turning to `CN=CN1CCc2ccccc21.Cl` [Example 1, 1-[(Methylimino)methyl]indoline hydrochloride], in experiment [3] (setting [6]), the ED50 turned out to be 21.8 mg/kg.

Consider `CC(C)N=CN1CCc2ccccc21` [Example 2, 1-[(Isopropylimino)methyl]indoline hydrochloride hemihydrate], for which the inhibition in vivo at 20 mg/kg in experiment [4] turned out to be 38%.

Consider `CN=C(C)N1CCc2ccccc21.Cl` [Example 3, 1-[1-(Methylimino)ethyl]indoline hydrochloride], for which, in experiment [4], the inhibition in vivo at 20 mg/kg was 24%. Further, in experiment [3] (setting [6]), the ED50 is 15.8 mg/kg.

For `CN=C(NC)N1CCc2ccccc21` [Example 4, 1-(N,N'-Dimethylamidino)indoline], in experiment [4], the inhibition in vivo at 20 mg/kg came out at 24%.

As to `c1ccc2c(c1)CCN2C1=NCCC1` [Example 7, 1-[2-(1-Pyrrolinyl)]indoline hydrochloride], the inhibition in vivo at 20 mg/kg in experiment [4] is 10%. Besides, in experiment [3] (setting [6]), the ED50 came out at 3.85 mg/kg.

For `CC1CCC(N2CCc3ccccc32)=N1` (centres unmarked) [Example 8, 1-[2-(5-Methyl-1-pyrrolinyl)]indoline hydrochloride], in experiment [4], the inhibition in vivo at 20 mg/kg was found to be 36%. Moreover, the ED50 in experiment [3] (setting [6]) was 13 mg/kg.

Regarding `CC1(C)CCC(N2CCc3ccccc32)=N1` [Example 9, 1-[2-(5,5-Dimethyl-1-pyrrolinyl)]-indoline hydrochloride], the “comparison of pentobarbital antagonism” value in experiment [1] is “substantially equiactive”. In addition, the inhibition in vivo at 20 mg/kg in experiment [4] amounted to 65%. The motor activity result in experiment [5] is “did not produce an increase in motor activity”. Moreover, in experiment [2] (setting [7]), the ED50 was determined as 15 mg/kg.

For the molecule `Cl.c1ccc2c(c1)CCN2C1=NCCCC1` [Example 10, 1-(3,4,5,6-Tetrahydro-2-pyridyl)-indoline hydrochloride], the ED50 in experiment [3] (setting [6]) was 5.7 mg/kg.

Consider `c1ccc2c(c1)CCN2C1=NCCCCC1` [Example 11, 1-[7-(3,4,5,6-Tetrahydro-2H-azepinyl)]-indoline hydrochloride], for which the ED50 in experiment [3] (setting [6]) amounted to 17.1 mg/kg.

In the case of `c1ccc2c(c1)CCN2C1=NCCSC1` [Example 12, 1-[5,6-Dihydro-3-(2H-thiazinyl)]indoline hydrochloride], in experiment [3] (setting [6]), the ED50 is 11.3 mg/kg.

For the molecule `Cl.c1ccc2c(c1)CCN2C1=NCCN1` [Example 13, 1-(2-Imidazolin-2-yl)indoline hydrochloride], the ED50 in experiment [3] (setting [6]) was found to be 33.2 mg/kg.

As for `CC(=O)c1ccc2c(c1)CCN2C1=NCCC1` [Example 17, 5-Acetyl-1-[2-(1-pyrrolinyl)]indoline], the “comparison of pentobarbital antagonism” value in experiment [1] is on record as “substantially equiactive”. For the same molecule, in experiment [4], the inhibition in vivo at 20 mg/kg was determined as 62%. Moreover, in experiment [5], the motor activity result is “did not produce an increase in motor activity”. Further, the figures for the ED50 in experiment [3] (setting [6]) and in experiment [2] (setting [7]) were 7.7 mg/kg and 10 mg/kg, respectively.

In the case of `CC(=O)c1ccc2c(c1)CCN2C1=NCCCCC1` [Example 18, 5-Acetyl-1-[7-(3,4,5,6-tetrahydro-2H-azepinyl)]indoline hydrochloride], the inhibition in vivo at 20 mg/kg in experiment [4] amounted to 17%. Besides, in experiment [3] (setting [6]), the ED50 came out at 16.2 mg/kg.

On to `CN=CN1CCc2cc([N+](=O)[O-])ccc21.Cl` [Example 19, 1-[(Methylimino)methyl]-5-nitro-indoline hydrochloride], for which, in experiment [3] (setting [6]), the ED50 turned out to be 10.3 mg/kg.

For `O=[N+]([O-])c1ccc2c(c1)CCN2C1=NCCCCC1` [Example 21, 1-[7-(3,4,5,6-Tetrahydro-2H-azepinyl)]-5-nitroindoline hydrochloride], in experiment [4], the inhibition in vivo at 20 mg/kg is 50%.
